Experimental data from patent US10844071B2, “Substituted [1,2,3]triazolo[4,5-d]pyrimidines that lower stress-induced p-tau” (BUCK INSTITUTE FOR RESEARCH ON AGING, priority 2015, dated 2020).
pKi: −log10 of the molar value. Values after ≈ are worked out from the molar mass of the structure shown. “Also recorded” adds a separate entry of the source. Counter-ions that a name gives are not always drawn. Like-named read-outs stand apart in the source and are kept apart here. Each block holds one compound with its values, some of them ahead of it.

What was measured:
[1] = PAMPA; type: in vitro ADME; conditions: Tertiary
[2] = test system: SH-SY5Y cells; test: Primary screen in SH-SY5Y cells (tau, p-tau); type: cell-based; conditions: for Tau % / p-Tau (%): Primary (SH-SY5Y)
Procedure: (§1) As described below, in vitro studies were performed using SHSY-5Y cells. These cells are a useful neurological model that differentiate into cells with morphological and biochemical characteristics of mature neurons including mature isoforms of tau.
However, J04 did lower p-tau to the same level as J03 and significant may not have been reached due to low N #.

[3] = Solubility in DMSO; type: physicochemical
[4] = target: T1, CRF1 (Homo sapiens, UniProt P34998); test: CRF1 binding (Ki)
T1 sequence (P34998 24-415): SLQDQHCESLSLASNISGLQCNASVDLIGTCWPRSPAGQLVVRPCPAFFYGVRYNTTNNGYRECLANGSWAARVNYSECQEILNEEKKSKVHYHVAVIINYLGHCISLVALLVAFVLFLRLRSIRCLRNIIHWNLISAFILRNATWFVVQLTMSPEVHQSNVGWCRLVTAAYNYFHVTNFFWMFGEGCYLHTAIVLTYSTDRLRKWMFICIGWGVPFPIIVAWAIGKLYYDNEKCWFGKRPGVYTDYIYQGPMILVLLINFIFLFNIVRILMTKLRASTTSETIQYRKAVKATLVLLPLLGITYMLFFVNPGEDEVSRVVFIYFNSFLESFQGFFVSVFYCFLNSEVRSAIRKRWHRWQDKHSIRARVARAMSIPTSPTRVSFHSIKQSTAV

[5] = test system: SH-SY5Y cells; test: Secondary screen in SH-SY5Y cells with CRF stimulation (tau, p-tau, sAPPα); type: cell-based
Procedure: as §1
In an initial study, SHSY-5Y cells were cultured without serum to induce differentiation and increase tau expression. […] The increases were proportional and both were about 50%. J03 (FIG. 4A) reduced the CRF-induced tau increases more than the p-tau increases. The increase in p-tau with CRF was expected, but the increase in tau less predictable as CRF reduces neuronal differentiation (see Chen et al. (2004) Proc. Natl. Acad. Sci. USA, 101(44): 15782-15787), however, it can increase tau accumulation.

[6] = test system: J20 mice; test: J03 pilot study #1 in J20 mice (SQ, 12 days); type: in vivo, mouse; conditions: SQ 10 mkd
Procedure: (§2) Animal experiments were performed using J20 mice. The J20 mouse is a model of for Alzheimer's disease. This model overexpresses human APP with two mutations linked to familial Alzheimer's disease (the APP KM670/671NL (Swedish) and […] (Indiana) mutations).
In pilot study #1, J20 mice housed singly were treated by SQ injection of J02 in PEG/b-MCD at 10 mkd for 12 days. NOR analysis of object memory (N=5/group) was performed. […] There was no difference in Aβ1-40 (panel B), but a decrease in Aβ1-42 (panel C).

[7] = test system: p-tau; test: Cortisol-induced (stress-induced) p-tau increase in vitro; type: cell-based
Description: To identify therapeutic candidates, a clinical library of CRF-1R inhibitors to was screened to determine their effects on cortisol-induced p-tau increases. […] J03 was shown specifically to inhibit stress-induced p-tau increases by cortisol in vitro.

[8] = test system: J20 mice; test: J17 pilot study in J20 mice (oral, 28 days); type: in vivo, mouse
Procedure: as §2
In a J17 pilot study (#1 pilot study) male and female J20 mice were housed singly and treated with J17 at 10 mkd by oral delivery for 28 days. […]

[9] = In vivo pharmacokinetics, brain and plasma levels; set-up: species or system mouse
[10] = target: T2, CRFR2 (Homo sapiens, UniProt Q13324); test: CRFR2 binding (Ki)
T2 sequence (Q13324 1-411): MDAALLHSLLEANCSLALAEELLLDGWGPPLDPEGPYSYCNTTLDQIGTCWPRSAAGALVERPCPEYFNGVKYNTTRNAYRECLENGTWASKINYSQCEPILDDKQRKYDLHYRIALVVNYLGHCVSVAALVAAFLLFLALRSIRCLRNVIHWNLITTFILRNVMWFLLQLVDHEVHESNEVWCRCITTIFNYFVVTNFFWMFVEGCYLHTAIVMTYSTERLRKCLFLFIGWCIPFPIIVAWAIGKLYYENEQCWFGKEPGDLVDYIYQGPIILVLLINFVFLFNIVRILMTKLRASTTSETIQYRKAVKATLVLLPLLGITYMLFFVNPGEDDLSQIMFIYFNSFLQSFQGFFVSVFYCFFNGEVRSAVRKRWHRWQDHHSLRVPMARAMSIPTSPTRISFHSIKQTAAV

[11] = test system: J20 mice; test: J03 pilot study #2 in J20 mice (oral, longer duration); type: in vivo, mouse; conditions: oral delivery
Procedure: as §2
Based on these promising results, the study was repeated (pilot study #2) with oral delivery and a longer duration.

[12] = organic solvent or mixture, read-out: Solubility
[13] = Secondary (SH-Sy5Y, CRF stimulation)
[14] = SH-SY5Y cells, CRF-induced increase

- PAMPA [1]: 0.94
- solubility [3, 12]: ~10 mM (≈ 2900 µg/mL)
- pKi ([4]; Tertiary, read-out: CRF1 Ki): < 6.00
Structure (SMILES): CCC(COC)n1nnc2c(N(C)C3CC3)nc(C)nc21 (centres unmarked) [Compound J11]
- Tau % [2]: Unchanged
- sAPPα (%) [5, 13]: Unchanged

- PAMPA [1]: 0.72
- solubility [3, 12]: ~10 mM (≈ 3480 µg/mL)
- pKi ([4]; Tertiary, read-out: CRF1 Ki): < 6.00
Structure (SMILES): CCC(COC)n1nnc2c(Nc3ccc(F)cc3F)nc(C)nc21 (centres unmarked) [Compound J07]

- solubility [3, 12]: ~10 mM (≈ 3440 µg/mL)
- pKi ([4]; Tertiary, read-out: CRF1 Ki): < 6.00
Structure (SMILES): CCC(COC)n1nnc2c(Nc3ccc(F)cc3C)nc(C)nc21 (centres unmarked) [Compound J06]
- Tau % [2]: Unchanged
- p-Tau (%) [5, 13]: Unchanged

- solubility [3]: ≈10 mM
Structure (SMILES): CCC(COC)Nc1nc(C)nc2c1nnn2-c1ccc(OC)cc1C (centres unmarked) [J17 HCl]
- Tau % [2]: Unchanged
- p-Tau (%) [2]: Unchanged

- brain levels ([9]; 10 mk subcutaneous (SQ) injection, J20 mice): low
- concentration at 2 h ([9]; J20, mouse, brain, two hours after oral dosing in formulation, first day of pilot study #2): 170 ng/g
- brain levels ([9]; end of pilot study #2, oral dosing): about 35 ng/g
- PAMPA [1]: 0.92
- solubility [3, 12]: ~10 mM (≈ 3550 µg/mL)
- pKi ([4]; Tertiary, read-out: CRF1 Ki): 8.15
- pKi ([4]; read-out: CRF-1 antagonist Ki): ~8.10
- pKi [10]: < 5.00
Structure (SMILES): CCC(COC)n1nnc2c(Nc3ccc(OC)cc3C)nc(C)cc21 (centres unmarked) [Compound J03, N-(4-Methoxy-2-methylphenyl)-1-[1-(methoxymethyl)propyl]-6-methyl-1H-1,2,3-triazolo[4,5-c]pyridine-4-amine]
- Aβ1-40 [6]: no difference
- Aβ1-40/1-42 ratio [6]: significantly increased
- Aβ1-42 [6]: decrease
- P-tau [6]: significantly lower
- SAPP (sAPPα levels) [6]: very slightly increased
- sAPP/Aβ1-42 ratio [6]: very slightly increased
- p-tau/tau ratio ([6]; great individual variation): slightly higher
- Total tau ([6]; largely due to one mouse): decreased
- behavior (NOR analysis of object memory) ([6]; single housed J20 mice): slight improvement
- stress-induced p-tau increases by cortisol [7]: inhibit
- novel object preference ([8]; all mice): increased novel object preference more than 17
- sAPPα ([8]; both genders): increase
- sAPPα/sAPPβ ratio ([8]; males): slight increase
- activity (total interactions) ([8]; not significant): lowered
- Tau % [2]: Unchanged
- p-tau ([2]; SH-SY5Y cells, no CRF): decreased
- p-tau/tau ratios ([5]; 50 and 100 nM CRF, FIG. 28 panel C): highly significantly decreased
- sAPPα ([5]; FIG. 28 panel D, significance for J03 at 100 nM CRF): trend for sAPPα to be higher
- p-tau after CRF exposure [5, 14]: reduces; also recorded: decreased
- tau after CRF exposure [5, 14]: reduces; also recorded: decreased
- sAPPα after CRF exposure ([5]; SH-SY5Y cells, FIG. 19): lower
- sAPPα (%) [5, 13]: Unchanged
- tau ([5]; absence of CRF and presence of 100 nM CRF, FIG. 28 panel A): significantly decreased
- p-tau ([5]; presence and absence of CRF, FIG. 28 panel B): significantly reduced
- Aβ1-40 [11]: unchanged
- Aβ1-40/Aβ1-42 ratio [11]: unchanged
- Aβ1-42 [11]: unchanged
- novel location assay [11]: performed well
- novel object assay [11]: performed well
- sAPPα [11]: increased slightly
- sAPPα/sAPPβ ratio [11]: slightly increased
- sAPPβ [11]: unchanged
- p-tau ([11]; decrease reached statistical significance): decreased

- PAMPA [1]: 2.39
- solubility [3, 12]: ~10 mM (≈ 3320 µg/mL)
- pKi ([4]; Tertiary, read-out: CRF1 Ki): < 6.00
Structure (SMILES): CCC(COC)n1nnc2c(N3CC(C)CC(C)C3)nc(C)nc21 (centres unmarked) [Compound J12]
- sAPPα (%) [5, 13]: Unchanged

- PAMPA [1]: 0.99
- solubility [3, 12]: ~10 mM (≈ 3400 µg/mL)
Structure (SMILES): CCC(COC)n1nnc2c(Nc3ccc(C)cc3C)nc(C)nc21 (centres unmarked) [Compound J05]

- solubility [3, 12]: ~10 mM (≈ 2900 µg/mL)
Structure (SMILES): CCC(COC)n1nnc2c(N3CCCC3)nc(C)nc21 (centres unmarked) [Compound J10]
- Tau % [2]: Unchanged
- p-Tau (%) [2]: Unchanged
